Measurements: patent publication US20210261570A1, “ANTIBIOTIC RESISTANCE BREAKERS” (KING'S COLLEGE LONDON, priority 2017, published 2021)
Converted amounts (≈) assume the structure as drawn. “And” between values parts separate entries of the source, which are not always exact repeats. Equal values may be shown once. Read-outs that look alike come from different tables or passages of the source.

Tests used:
EMRSA15 = assay: MIC, microdilution broth method; type: cell-based, Staphylococcus aureus; settings: EMRSA15; in µg/mL
EMRSA16 = assay: MIC, microdilution broth method; type: cell-based, Staphylococcus aureus; settings: EMRSA16
S. aureus SA 238 = assay: MIC, MDR strains with target mutations; type: cell-based
S. aureus SA 215 = assay: MIC, MDR strains with target mutations; type: cell-based; settings: in µg/mL
S. aureus SA 454 = assay: MIC, MDR strains with target mutations; type: cell-based
S. aureus SA 282 = assay: MIC, MDR strains with target mutations; type: cell-based
S. aureus SA 275 = assay: MIC, MDR strains with target mutations; type: cell-based; settings: S. aureus SA 275 (gyrA, 84: S => V)
S. aureus SA 046 = assay: MIC, MDR strains with target mutations; type: cell-based
[1] = system: S. aureus SA275 (gyrA, 84: S => L); assay: MIC, MDR strains with target mutations; type: cell-based; settings: Table 11 second entry
S. aureus SA 105 = type: cell-based; settings: in µg/mL
[2] = system: multidrug resistant strains; assay: Reserpine growth assay in several multidrug resistant strains; type: cell-based; settings: FIG. 27
Protocol: Reserpine was added at a final concentration of 10 g/mL (made up at 40 μg/mL in TSB, 50 μL per well). The bacteria were added at an OD of 0.01 in TSB (100 μL/well). The plate was a normal clear plate as used for MICs. OD was read every 30 minutes for 9 hours (the literature states 7 hours, but this is strain-dependent). Blanks of TSB and water were added to ensure no infections were present.

[3] = system: Staphylococcus aureus ATCC29213; assay: Murine model of thigh infection (neutropenic ICR mice); settings: for decrease of thigh bacterial burden compared to vehicle group: 8 h and 14 h post infection
Text: 40 Male mice used in these study were supplied by Charles River UK and were specific pathogen free. The strain of mouse used was Hsd:ICR (CD-1®), which is a well characterized outbred strain. Mice were 11-15 g on receipt at Evotec's facility and were allowed to acclimatize for minimum of 7 days prior to infection. Mice were approximately 28 g at the start of the study. Mice were housed in sterile individual ventilated cages exposing animals at all times to HEPA filtered sterile air. Mice had free access to food and water (sterile) and had sterile aspen chip bedding. The room temperature was 22° C.±1° C., with a relative humidity of 50-60% and maximum background noise of 56 dB. Mice were exposed to 12 hour light/dark cycles with dawn/dusk phases.
All mice were rendered neutropenic by immunosuppression with cyclophosphamide at 150 mg/kg 4 days before infection and then 100 mg/kg 1 day before infection administered by intraperitoneal injection. The immunosuppression regime leads to neutropenia starting 24 hours post administration of the first injection, which continues throughout the study. Mice were infected approximately 24 hours after the second dose of immunosuppressive agent.
Staphylococcus aureus ATCC29213 was used for the study.
Whilst still under anaesthesia mice were administered a single dose of buprenorphine (0.03 mg/kg) subcutaneously for pain relief.
Test articles and comparator were prepared in stock solutions at 10× concentration as described in Table 20. The stock solutions were prepared in aliquots (1 aliquot per time of dosing) and frozen at −20° C. The solutions were thawed and then diluted in water just before dosing to obtain the appropriate concentration of 5 mg/mL or 2 mg/mL for oral administration at 10 mL/kg of the dose of 50 mg/kg or 20 mg/kg respectively (Table 20). 10% DMSO in water was used as the vehicle
After sacrifice of animal, both posterior thighs were removed, weighed, then homogenised in 2 mL PBS using a Precellys bead beater and the homogenates individually quantitatively cultured on CLED agar to determine the bacterial burdens.
The data from the culture burdens were analysed using appropriate non-parametric statistical models (Kruskal-Wallis using Conover-Inman to make all pairwise comparisons between groups) with StatsDirect software v. 2.7.8., and compared to pre-treatment and vehicle controls.

[4] = Single dose pharmacokinetics study, oral and intravenous, blood and urine; type: in vivo; settings: mouse; for Cmax: read-out: Co/Cmax
Protocol: ICR breed Mice (CD-1® IGS mice) were used in these studies and was supplied by Charles River (Margate UK) and. The mice were allowed to acclimatise for at least 7 days before starting the study. Treatments was administered by oral route or intravenous route according to the table below. For the PK study, 12 mice for each compound for oral route and 12 mice per compound for the intravenous route was treated. Mice was sequentially bled from a caudal vein into a 20 μL capillary (by agreement containing an anticoagulant) at different time as indicated in table below and a terminal bleed by cardiac puncture at 8 h after administration. Samples collected by capillary was directly transferred into a 96 well and mixed with 20 μL of water, then frozen and store at −80° C. until bioanalysis. Mice for urine collection was housed singly in metabolic cages and urine collected at 0-1, 1-2, 2-4 h and 4-8 h post administration. Urine removed from the collection vessels in the metabolic cages and were frozen and store at −80° C. until bioanalysis. 12 mice were used for urine collection. […] A compound specific LC-MS/MS method was developed for each test compound and samples was quantified using matrix matched calibrators. Samples was prepared for bio-analysis via protein precipitation. Concentration vs time data and non-compartmental analysis was utilised to determine relevant PK parameters e.g. CL, Vss, t1/2, AUCinf AUCo-t, Cmax, tmax, % F, % dose in urine and CLR.

VRE12201 = assay: MIC, microdilution broth method; type: cell-based, E. faecalis; settings: VRE12201; Gram-positive; in µg/mL
S. aureus SA 318 = type: cell-based
S. aureus SA 388 = type: cell-based
E. faecium EF 205 = type: cell-based
E. faecalis EF 602 = type: cell-based
S. aureus USA300 = assay: MIC; type: cell-based; settings: Staphylococcus aureus
S. aureus SH1000 = assay: MIC; type: cell-based; settings: Staphylococcus aureus
[5] = ICR (CD-1 IGS), in vivo, iv, 5 mg/kg
[6] = ICR (CD-1 IGS), in vivo, po, 20 mg/kg
[7] = ICR (CD-1 IGS), in vivo, iv, 5.0 mg/kg, blood, Composite Mean

With `C[C@H]1COc2c(N3CC[C@@H](Nc4ncccn4)C3)c(F)cc3c(=O)c(C(=O)O)cn1c23` [KSN-L22, (S)-9-fluoro-3-methyl-7-oxo-10-((R)-3-(pyrimidin-2-ylamino)pyrrolidin-1-yl)-2,3-dihydro-7H-[1,4]oxazino[2,3,4-ij]quinoline-6-carboxylic Acid] the MIC (EMRSA15) was 0.5-1, the MIC (EMRSA16) was 1 µg/mL (≈ 2.35 µM) and the MIC (S. aureus SA 238) was 1 µg/mL (≈ 2.35 µM). For the same molecule, the MIC (S. aureus SA 215) was 1, the MIC (S. aureus SA 454) was 1 µg/mL (≈ 2.35 µM) and the MIC (S. aureus SA 282) was 1 µg/mL (≈ 2.35 µM). The MIC (S. aureus SA 275) was 1 µg/mL (≈ 2.35 µM), the MIC (S. aureus SA 046) was 1 µg/mL (≈ 2.35 µM) and the MIC [1] was 1 µg/mL (≈ 2.35 µM). For the same molecule, the MIC (S. aureus SA 105) was 1, the “efflux from the bacteria (reserpine growth assay)” value [2] was “reduced efflux” and the “thigh bacterial burden, result in words” value ([3]; 20 and 50 mg/kg, 18 h post infection) was “statistically significant reduction of bacterial load”. The clearance ([4]; ICR (CD-1 IGS), in vivo, iv, 5.0 mg/kg, blood, Composite Mean, read-out: Blood CL) was 12.5 mL/min/kg, the AUC(0-inf) [4, 5] was 6690 ng·h/mL and the AUC(0-inf) [4, 6] was 13200 ng·h/mL. For the same molecule, the “Bioavailability (%) Using AUCinf” value [4, 6] was 49.3%, the “Bioavailability (%) Using AUCo. t” value [4, 6] was 32.0% and the CL_F [4, 6] was 26.4 mL/min/kg. For the same molecule, the T1/2 ([4]; PO, 20.0 mg/kg, blood, Mean) was 5.1 h and the Vdss ([4]; iv, 5.0 mg/kg, blood, Composite Mean) was 1.4 L/kg.
For `C[C@H]1COc2c(N3CCN(C)CC3)c(F)cc3c(=O)c(C(=O)O)cn1c23` [Levofloxacin, levofloxacin], the MIC (EMRSA16; Gram-positive) was 16 µg/mL (≈ 44.3 µM), the MIC (VRE12201) was 0.5-1 and the MIC (S. aureus SA 238) was 32 µg/mL (≈ 88.6 µM). The MIC (S. aureus SA 215) was 32 and 16, the MIC (S. aureus SA 454) was 8 µg/mL (≈ 22.1 µM) and the MIC (S. aureus SA 046) was 16 µg/mL (≈ 44.3 µM). For the same molecule, the MIC (S. aureus SA 105) was 8-16, the MIC (S. aureus SA 318) was 16 µg/mL (≈ 44.3 µM) and the MIC (S. aureus SA 388) was 16 µg/mL (≈ 44.3 µM). The MIC (E. faecium EF 205) was > 32 µg/mL, the MIC (E. faecalis EF 602) was > 32 µg/mL and the MIC (S. aureus USA300) was 8 µg/mL (≈ 22.1 µM). For the same molecule, the MIC (S. aureus SH1000) was 2 to 4 µg/mL (≈ 5.53 to 11.1 µM), the “decrease of thigh bacterial burden compared to vehicle group” value ([3]; 20 mg/kg/dose oral at 2 h, 18 h post infection) was ~5 log10 CFU/g and the “decrease of thigh bacterial burden compared to vehicle group” value ([3]; 50 mg/kg/dose oral at 2 h, 18 h post infection) was ~5 log10 CFU/g. The “body weights following infection” value ([3]; in vivo) was “unchanged”, the “Statistic analysis of thigh burden, P versus ML-83-009 20 mg/kg” value ([3]; substance at 20 mg/kg) was “P = 0.0003” and the “Statistic analysis of thigh burden, P versus ML-83-009 50 mg/kg” value ([3]; substance at 20 mg/kg) was “P = 0.0058”. The “Statistic analysis of thigh burden, P versus Vehicle” value ([3]; substance at 20 mg/kg) was “P < 0.0001”, the “Statistic analysis of thigh burden, P versus ML-83-009 20 mg/kg” value ([3]; substance at 50 mg/kg) was “P < 0.0001” and the “Statistic analysis of thigh burden, P versus ML-83-009 50 mg/kg” value ([3]; substance at 50 mg/kg) was “P < 0.0001”. The “Statistic analysis of thigh burden, P versus Pre treatment” value ([3]; substance at 50 mg/kg) was “P = 0.0084”, the “Statistic analysis of thigh burden, P versus Vehicle” value ([3]; substance at 50 mg/kg) was “P < 0.0001” and the Cmax ([4]; ICR (CD-1 IGS), in vivo, PO, 20.0 mg/kg, blood, Mean) was 2950 ng/mL. The half-life [4, 7] was 0.5 h, the Cmax [4, 7] was 3890 ng/mL and the AUC [4, 5] was 3090 ng·h/mL and 8.55 µM·h. The AUC(0-inf) [4, 5] was 3310 ng·h/mL and 9.19 µM·h, the MRT [4, 5] was 3 h and the Vd [4, 5] was 4.5 L/kg. For the same molecule, the clearance [4, 5] was 25.2 mL/min/kg, the AUC [4, 6] was 4260 ng·h/mL and 11.8 µM·h and the AUC(0-inf) [4, 6] was 5390 ng·h/mL and 14.9 µM·h. For the same molecule, the “Bioavailability (%) Using AUCo. t” value [4, 6] was 34.5%, the Tmax [4, 6] was 0.5 h and the T1/2 ([4]; PO, 20.0 mg/kg, blood, Mean) was 5.7 h.
